Source: US12285416B2 (priority 2017, dated 2025)
Values joined by “and” are separate entries in the source; they are usually repeats but may differ in a detail not shown here. Equal entries are not always repeated. Where two headings read alike, the source gives them in different places.

Assays:
[1] = test system: rat left phrenic nerve-diaphragm preparation
[2] = test system: rat left phrenic nerve-diaphragm preparation; remark: listed apart in the source
[3] = test system: rat left phrenic nerve-diaphragm preparation; remark: listed apart in the source
[4] = test system: anesthetized rabbit; conditions: in vivo, iv
[5] = test system: anesthetized/ventilated rat; conditions: in vivo

## C[C@@H]1O[C@H](C[N+](C)(C)C)C[C@H]1O (racemic) [Muscarine, (±)-Muscarine chloride hydrate]
[1]
  effect on force and maximal rate of change: minimal or slight reduction of force, and maximal rate of change
[1]; hydrate
  Contraction Amplitude, Raw Values: 14.5 ± 1.4 g and 13.5 ± 1.2 g and 13.3 ± 1.2 g and 13.5 ± 1.3 g
  Max Rate of Change, Raw Values: 341 ± 45 g/s and 314 ± 45 g/s and 321 ± 41 g/s and 329 ± 39 g/s

## CN(C)C(=O)Oc1cccc([N+](C)(C)C)c1 [Neostigmine]
[2]
  Contraction Amplitude, Neostigmine with d-tubocurarine Raw Values: 5.9 ± 0.8 g and 5.2 ± 0.6 g and 4.7 ± 1.2 g
  Max Rate of Change, Neostigmine with d-tubocurarine Raw Values: 141 ± 30 g/s and 131 ± 21 g/s and 108 ± 39 g/s
[3]
  Contraction Amplitude, Raw Values: 6.3 ± 0.5 g
  Contraction Amplitude, Δ from 50% reduction with MMB4: 0.6 g and 0.6 ± 0.1 g
  Max Rate of Change, Raw Values: 153 ± 12 g/s
  Max Rate of Change, Δ from 50% reduction with MMB4: 20 ± 4 g/s

## CN1CCC[C@H]1c1cccnc1 [Nicotine, (−)-Nicotine detartrate]
[1]
  Contraction Amplitude, Raw Values: 10.8 ± 3.2 g and 9.7 ± 2.6 g
  Max Rate of Change, Raw Values: 229 ± 97 g/s and 225 ± 102 g/s and 201 ± 94 g/s
  effect on contraction: depressed contraction
  effect on contraction and maximal rate of change: positive effect

## CS(=O)(=O)[O-].[Na+] [Sodium Methanesulfonate]
[1]
  Contraction Amplitude, Raw Values: 9.1 ± 0.8 g and 8.9 ± 0.8 g and 8.6 ± 0.8 g and 8.2 ± 0.7 g
  Max Rate of Change, Raw Values: 211 ± 48 g/s and 214 ± 48 g/s and 210 ± 48 g/s and 197 ± 45 g/s
  effect on function: minimal effect on function

## COc1cc2c3cc1Oc1cc(ccc1O)C[C@@H]1c4c(cc(OC)c(O)c4Oc4ccc(cc4)C[C@@H]3N(C)CC2)CC[N+]1(C)C [d-tubocurarine, d-tubocurarine chloride hydrate]
[2]
  Contraction Amplitude, Raw Values: 5.2 ± 0.8 g
  Max Rate of Change, Raw Values: 106 ± 22 g/s
[2]; hydrate
  Contraction Amplitude, d-tubocurarine Raw Values: 5.2 ± 0.9 g and 4.3 ± 0.5 g and 4.4 ± 1.1 g
  Max Rate of Change, d-tubocurarine Raw Values: 119 ± 31 g/s and 101 ± 20 g/s and 101 ± 35 g/s

## Cisatracurium (Besilate salt)
[4]
  Diaphragmatic Force: 5.4 ± 1.0 g
  Diaphragmatic Force relative change from baseline: −77 ± 6%
  HR: 282 ± 7 bpm
  HR relative change from baseline: 0 ± 1%
  ITP: 15.1 ± 0.6 mmHg
  ITP relative change from baseline: 7 ± 4%
  LVEDP: 7.6 ± 1.1 mmHg
  LVEDP relative change from baseline: 17 ± 8%
  LVdP/dtmax: 2760 ± 246 mmHg/s
  LVdP/dtmax relative change from baseline: −6 ± 3%
  MAP: 63 ± 6 mmHg
  MAP relative change from baseline: −3 ± 3%
  Skeletal Force: 1.1 ± 0.5 g
  Skeletal Force relative change from baseline: −86 ± 5%
  tau: 8.7 ± 0.2 ms
  tau relative change from baseline: 0 ± 1%
[4]; 0.1 mg/kg
  effect on cardiovascular function: negligible effects in cardiovascular function
  effect on skeletal and diaphragmatic contractions: reversible inhibition of skeletal and diaphragmatic contractions

## pralidoxime chloride [2-PAM]
[5]
  effect on diaphragmatic function: depression
